The values that follow come from paper PMC9296036, “A peptide interfering with the dimerization of oncogenic KITENIN protein and its stability suppresses colorectal tumour progression” (Clinical and Translational Medicine, 2022).

Ends that are not written are not given here.

In this assay the target is T1, KITENIN homodimer (Homo sapiens, UniProt Q8TAA9).
T1 construct: Lysates of 293T cells expressing full‐length KITENIN‐myc; expressed in transfected cells; host or cells: Caco2
T1 sequence (Q8TAA9 1-524): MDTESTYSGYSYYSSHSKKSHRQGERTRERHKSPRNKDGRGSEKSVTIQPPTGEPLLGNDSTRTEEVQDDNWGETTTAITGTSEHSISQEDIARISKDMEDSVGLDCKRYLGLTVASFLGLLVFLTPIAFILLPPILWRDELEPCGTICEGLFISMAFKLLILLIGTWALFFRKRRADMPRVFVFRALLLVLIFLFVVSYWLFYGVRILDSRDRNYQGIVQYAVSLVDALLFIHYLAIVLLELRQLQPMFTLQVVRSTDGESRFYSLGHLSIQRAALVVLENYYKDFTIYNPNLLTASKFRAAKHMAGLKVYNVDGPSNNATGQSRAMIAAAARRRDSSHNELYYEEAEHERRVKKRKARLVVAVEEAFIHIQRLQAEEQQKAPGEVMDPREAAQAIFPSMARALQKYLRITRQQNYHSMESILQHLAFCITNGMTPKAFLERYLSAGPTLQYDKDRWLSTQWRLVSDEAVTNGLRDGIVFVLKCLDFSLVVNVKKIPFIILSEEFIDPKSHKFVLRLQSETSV
Kind of assay: In vitro pull-down of purified KITENIN-GST and KITENIN-His. The class given is biochemical. Particulars: KDIP 5 μM, 4°C, 2 h, GST pull-down. As for the experimental part:
GST‐KITENIN or its derivatives were immobilized on glutathione‐sepharose beads. Myc‐tagged KITENIN was incubated with GST‐tagged KITENIN or its derivative proteins immobilized on glutathione‐sepharose as indicated. The bound protein complexes were eluted and analysed by SDS–PAGE followed by IB. To detect in vitro KITENIN homodimerization, […] GST‐KITENIN was incubated with Ni‐NTA‐purified KITENIN‐His and KDIP (5 μM) in the pull‐down buffer (50‐mM Tris.Cl [pH 7.5], 1‐mM dithiothreitol [DTT] 4% [v/v] glycerol, .1 mg/ml of BSA, 5‐mM MgCl2, 1‐mM ATP and 50‐mM NaCl) at 4°C for 2 h. […]
FIGURE 2 KAI1 C‐terminal interacting tetraspanin (KITENIN) dimerization‐interfering peptide (KDIP) suppresses KITENIN‐induced enhanced cell invasion through the inhibition of the homodimerization of KITENIN. […] After 48 h of treatment, KITENIN transcripts in cells were analysed by the 2^−ΔΔ ^CT method using Q‐PCR. […] Caco2 cells were co‐transfected with KITENIN‐V5/Myc and treated with or without KDIP or scrambled peptide (scr) and were immunoprecipitated with anti‐V5 antibody and detected by indicated antibodies. Numerals indicated a quantification of the MYC bands normalized to the corresponding V5 bands (left panel). […] The histogram represents invading cells, which were counted at four chosen areas and shown by bar graphs (mean ± SEM, n = 4, ^** p < .01). […]

With YARVRRRGPRRWRLVSDEAV [KDIP], the “dimerization of purified KITENIN proteins in vitro (in words)” value is listed as “directly reduced”.
